Laboratory results: article PMC8998803, “Fragment-Based Discovery of AF9 YEATS Domain Inhibitors” (International Journal of Molecular Sciences, 2022)

Legend:
[1] = target: T1, AF9 YEATS domain (Homo sapiens, UniProt P42568); assay: NMR chemical shift perturbation titration of 15N-labeled AF9 YEATS domain; format: binding; conditions: for Kd: from dose-dependent chemical shift perturbations, ± fitting error; for LE: ligand efficiency, Table 1
T1 construct: DNA fragment encoding AF9 YEATS domain (residues 1–138) was amplified and cloned into the pET28a vector; made in house; host or cells: Escherichia coli BL21 (DE3)
T1 sequence (P42568 1-138): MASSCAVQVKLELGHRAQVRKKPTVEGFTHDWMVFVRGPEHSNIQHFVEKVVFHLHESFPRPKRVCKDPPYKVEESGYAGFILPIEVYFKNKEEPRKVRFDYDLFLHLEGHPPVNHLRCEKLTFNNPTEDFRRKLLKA
Description: (§1) To further validate the results of ligand-observed fragment-based screening, we titrated these hits with the ^15N-labeled AF9 YEATS domain (Figure 1B). The backbone chemical shift assignment was retrieved from the literature. […] These residues were then mapped to the surface of the crystal structure of the AF9 YEATS domain in complex with H3K9ac (PDB code: 4TMP), which indicated the binding of these hits to the same pocket for acyl-lysine recognition (Figure 1D). The binding affinity of hit 2 was then determined by best fitting the dose-dependent CSPs of these residues (Figure 1E) at 0.07 ± 0.01 mM (fitting error was used henceforth unless specifically annotated). The affinity of hit 2 was further validated using isothermal titration calorimetry (ITC) (Figure 1F). The binding affinity of the other hits was determined using the same approach (Table 1). These four hits probably bound to the same pocket since they shared the same pharmacophore.
The ^15N-labeled AF9 YEATS domain was concentrated to 0.1 mM in phosphate buffered saline at pH 6.8. The HSQC spectra were acquired on the Agilent 500 MHz spectrometer at a ligand/protein molar ratio varying from 0 to 8.0. The dissociation constant Kd was best-fitted using the following equation assuming a 1:1 binding mode, Δδobs=ΔδmaxPt+Lt+Kd−Pt+Lt+Kd^2−4PtLt/2Pt where Pt and Lt represented the total concentrations of the protein and the ligand, respectively, and the Δδobs denoted the observed chemical shift changes relative to the free-form protein. Δδobs was defined as 1/2δH2+0.04δN2 , where δH and δN were the chemical shift changes in the ^1H and ^15N dimension, respectively. The maximum of the chemical shift perturbations Δδmax and the dissociation constant Kd were best-fitted from the dose-dependent chemical shift changes

[2] = target: T1, AF9 YEATS domain; assay: Isothermal titration calorimetry with AF9 YEATS domain; format: binding
Description: as §1
All ITC titrations were carried out on a MicroCal ITC200 calorimeter (Malvern Instruments Ltd., Malvern, UK) at 298K. The AF9 YEATS domain protein was dialyzed to 20 mM Tris buffer containing 150 mM NaCl at pH 7.4. The concentration of the protein was determined by UV-Vis spectroscopy. The compounds were dried and dissolved in the same buffer. The concentrations of compounds were determined using quantitative NMR30. The ITC data were analyzed using Origin 2019 and best-fitted to the one-site binding model to determine the enthalpies and affinity constants. The binding entropies were calculated using the Gibbs free energy equation.

[3] = target: T2, ENL YEATS domain (Homo sapiens, UniProt Q03111); assay: NMR chemical shift perturbation titration of ENL YEATS; format: binding; conditions: determined by CSPs, read-out: affinity
T2 construct: determined from the dose-dependent chemical shift perturbations of ENL YEATS
T2 sequence (Q03111 1-138 limits assumed): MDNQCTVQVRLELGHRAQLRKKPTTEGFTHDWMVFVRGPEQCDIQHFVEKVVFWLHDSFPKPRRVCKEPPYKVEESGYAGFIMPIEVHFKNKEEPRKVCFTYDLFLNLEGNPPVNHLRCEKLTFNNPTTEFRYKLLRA
Protocol: (§2) It is, therefore, difficult to achieve a high selectivity between AF9 and ENL YEATS domains, as underscored by the similar affinity of compound 10 to both AF9 and ENL (38 ± 6 μM) determined by CSPs (Figure 4C), even though compound 10 represented a new chemotype with a binding mode distinct from that of SGC-iMLLT (Figure 4B). […] Therefore, compound 10 was a dual inhibitor of AF9/ENL YEATS domains.
(§3) Figure 4 Selectivity analysis of AF9 inhibitors among human YEATS domains and antiproliferation activities. (A) Sequence alignment of human YEATS domains. Conserved residues are highlighted, with residues interacting with H3K9ac annotated. (B) Superimposition of AF9 and ENL YEATS domain structures in complex with 10 (carbon atom in magenta) and SGC-iMLLT (PDB code: 6HT1), respectively. The hydrogen bonds are delineated by dashed lines. (C) The binding affinity of 10 determined from the dose-dependent chemical shift perturbations of ENL YEATS. The Kd value with the fitting error is annotated. (D) Chemical shift perturbations of the ^15N-labeled YEATS2 YEATS domain induced by 10. (E) The binding affinity of 10 estimated from best fitting of the dose-dependent chemical shift perturbations of the YEATS2 YEATS domain. (F) Viability of MCF7 and AF9-sensitive HGC-27 cells upon treatment with inhibitors at a single dose of 100 μM. […]

[4] = target: T3, YEATS2 YEATS domain (Homo sapiens, UniProt Q9ULM3); assay: NMR chemical shift perturbation titration of 15N-labeled YEATS2 YEATS domain; format: binding
T3 construct: Chemical shift perturbations of the ^15N-labeled YEATS2 YEATS domain induced by 10
T3 sequence (Q9ULM3 200-345 limits assumed): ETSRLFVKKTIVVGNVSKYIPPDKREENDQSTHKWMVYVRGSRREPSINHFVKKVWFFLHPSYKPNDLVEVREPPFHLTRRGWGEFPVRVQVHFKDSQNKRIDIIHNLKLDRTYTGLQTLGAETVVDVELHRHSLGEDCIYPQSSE
Protocol: as §2, §3

[5] = tested on: MCF7 cells; assay: Cell Counting Kit-8 (CCK-8) cell viability assay, MCF7; conditions: single dose of 100 μM
Protocol: (§4) We further assessed the cellular activity of these inhibitors in cancer cells.
(§5) Human MCF7 and HGC-27 cell lines were cultured at 37 °C in a humidified 5% CO2 atmosphere in DMEM (Gibco, Stony Plain, AB, Canada) medium supplemented with 10% fetal bovine serum (FBS) (Gibco) and 1 × penicillin/streptomycin (Gibco). MCF7 and HGC-27 cells were seeded in 96-well plates with approximately 10^4 cells in 100 μL of the medium and treated with the following conditions: fresh culture medium with DMSO (control) or fresh culture medium with inhibitors at a concentration of 100 μM. Cell viability was measured using a Cell Counting Kit-8 (Purchased from TargetMol, Boston, MA, USA) according to manufacturer’s instructions [45]. The absorbance was read at 450 nm with a microplate reader (CLARIOstar, BMG LABTECH, Ortenberg, Germany). Cell viability was calculated as the ratio of experimental group absorbance vs. control group absorbance.

[6] = tested on: NCL-H1975 cells; assay: Cell viability, NCL-H1975; format: cell-based; conditions: single dose of 100 μM; AF9-sensitive cell line
[7] = tested on: HGC-27 cells; assay: Cell Counting Kit-8 (CCK-8) cell viability assay, HGC-27; conditions: AF9-sensitive HGC-27 cells
Protocol: as §4, §5

[8] = tested on: MCF7; parameters: method as in PMID 30288907; conditions: cited from earlier work
[9] = tested on: the rest of the 59 cell lines; parameters: method as in PMID 30288907; conditions: cited from earlier work

Structure (SMILES) | Kd [1] [µM] | LE [1] | also measured
COCC(=O)Nc1ccc(C)c(N)c1 [Compound 1] | 137 ± 24 | 0.38 | 
COCC(=O)Nc1ccc(Cl)c(N)c1 [Compound 2] | 70 ± 10 | 0.41 | ΔH ([2]; ITC binding enthalpy): -10 ± 2 kcal/mol; Kd ([2]; ITC, 1:1 binding mode, 298K): 76 ± 10 µM; -TΔS ([2]; ITC, entropy calculated using the Gibbs free energy equation): 4 kcal/mol
COCC(=O)Nc1ccc(N)cc1Cl [Compound 3] | 100 ± 10 | 0.39 | 
COCC(=O)Nc1ccc(N)cc1C [Compound 4] | 440 ± 100 | 0.33 | 
COCC(=O)Nc1ccc(Cl)cc1 [Compound 5] | 80 ± 60 | 0.43 | change of affinity (in words) ([1]; relative to hit 2): did not significantly alter the affinity
COCC(=O)Nc1ccc(Cl)c(O)c1 [Compound 6] | 61 ± 4 | 0.41 | change of affinity (in words) ([1]; relative to hit 2): did not significantly alter the affinity
CNC(=O)Cc1ccc(NC(=O)COC)cc1 [Compound 7] | 270 ± 20 | 0.29 | 
COCC(=O)Nc1ccc(CNC(C)=O)cc1 [Compound 8] | 310 ± 4 |  | 
CNCC(=O)Nc1ccc(CNC(C)=O)cc1 [Compound 9] | 660 ± 70 | 0.26 | 
O=C(COCc1ccccc1)Nc1ccc(Cl)cc1 [Compound 10] | 38 ± 6 |  | Kd [3]: 38 ± 6 µM; binding affinity (in words) ([4]; chemical shift of YEATS2 only slightly disturbed): very weak binding affinity; Kd ([4]; estimated from best fitting of dose-dependent chemical shift perturbations): > 200 µM; potency in MCF7 cells (in words) [5]: weak potency; effect on NCL-H1975 cells (in words) [6]: demonstrated inhibitory effects; proliferation of HGC-27 cells (in words) [7]: suppressed the proliferation of AF9-sensitive HGC-27 cells more effectively in a dose-dependent manner; enhancement of the affinity for the AF9 YEATS domain ([1]; relative to hit 2): approximately two-fold enhancement
O=C(COc1ccccc1)Nc1ccc(Cl)cc1 [Compound 11] | 88 ± 30 | 0.31 | 
O=C(COCc1ccc(F)cc1)Nc1ccc(Cl)cc1 [Compound 12] | 87 ± 11 | 0.28 | 
O=C(COCc1ccccc1O)Nc1ccc(Cl)cc1 [Compound 13] | 70 ± 9 | 0.28 | 
O=C(COCc1ccccc1)Nc1c(F)cc(Cl)cc1F [Compound 14] | 26 ± 4 | 0.30 | affinity enhancement relative to that of 10 ([1]; AF9 YEATS): approximately 30%
C[C@H]1CCCN1Cc1nc2cc(NC(=O)c3ccc4c(cnn4C)c3)ccc2[nH]1 [SGC-iMLLT] |  |  | potency in MCF7 (in words) [8]: weak potency; activities over the rest of the 59 cell lines (in words) [9]: almost no detectable activities
